In ChEMBL document CHEMBL1128021, “Potent and selective inhibitors of gelatinase-a 1. hydroxamic acid derivatives” (Bioorg Med Chem Lett, 1994):

How the values were obtained:
Interstitial collagenase = biological target: T1, Interstitial collagenase (Homo sapiens, UniProt P03956); assay: Inhibition of the collagenase enzyme.
T1 sequence (P03956 whole entry): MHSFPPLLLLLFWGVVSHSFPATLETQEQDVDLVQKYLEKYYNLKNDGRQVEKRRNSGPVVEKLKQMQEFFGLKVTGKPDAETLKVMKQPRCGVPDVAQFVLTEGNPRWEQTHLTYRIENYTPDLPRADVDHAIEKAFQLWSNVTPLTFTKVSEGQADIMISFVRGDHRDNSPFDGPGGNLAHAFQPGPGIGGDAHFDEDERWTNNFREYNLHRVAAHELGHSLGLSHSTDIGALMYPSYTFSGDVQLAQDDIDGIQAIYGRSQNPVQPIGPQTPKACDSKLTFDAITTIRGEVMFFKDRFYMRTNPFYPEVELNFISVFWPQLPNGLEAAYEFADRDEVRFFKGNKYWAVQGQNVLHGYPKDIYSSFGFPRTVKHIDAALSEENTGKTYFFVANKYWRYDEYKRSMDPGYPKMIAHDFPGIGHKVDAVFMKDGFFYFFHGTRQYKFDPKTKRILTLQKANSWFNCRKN

Stromelysin-1 = Stromelysin-1 (Homo sapiens, UniProt P08254); assay: Inhibition of the stromelysin enzyme.
[1] = biological target: 72 kDa type IV collagenase (Homo sapiens, UniProt P08253); assay: Inhibition of the gelatinase-A enzyme.
72 kDa type IV collagenase, sequence (P08253 whole entry): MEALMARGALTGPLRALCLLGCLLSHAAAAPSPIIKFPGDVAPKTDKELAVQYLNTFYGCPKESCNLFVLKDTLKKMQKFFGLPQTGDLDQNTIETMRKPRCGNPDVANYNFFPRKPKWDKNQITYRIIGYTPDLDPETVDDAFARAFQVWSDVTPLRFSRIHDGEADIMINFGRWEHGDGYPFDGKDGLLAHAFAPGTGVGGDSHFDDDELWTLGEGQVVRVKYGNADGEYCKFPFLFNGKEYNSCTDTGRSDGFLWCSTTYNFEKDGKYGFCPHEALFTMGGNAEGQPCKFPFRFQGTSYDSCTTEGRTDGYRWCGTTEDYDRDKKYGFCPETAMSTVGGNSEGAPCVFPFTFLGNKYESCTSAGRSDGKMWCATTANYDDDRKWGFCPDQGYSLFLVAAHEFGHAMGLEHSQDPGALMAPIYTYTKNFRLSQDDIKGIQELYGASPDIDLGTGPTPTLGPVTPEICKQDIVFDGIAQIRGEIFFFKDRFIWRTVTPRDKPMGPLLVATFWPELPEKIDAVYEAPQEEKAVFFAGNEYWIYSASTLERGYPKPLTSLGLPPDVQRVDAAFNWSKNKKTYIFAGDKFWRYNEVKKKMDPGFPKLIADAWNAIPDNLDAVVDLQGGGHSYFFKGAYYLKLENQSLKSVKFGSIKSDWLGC

Stromelysin-1, sequence (P08254 whole entry): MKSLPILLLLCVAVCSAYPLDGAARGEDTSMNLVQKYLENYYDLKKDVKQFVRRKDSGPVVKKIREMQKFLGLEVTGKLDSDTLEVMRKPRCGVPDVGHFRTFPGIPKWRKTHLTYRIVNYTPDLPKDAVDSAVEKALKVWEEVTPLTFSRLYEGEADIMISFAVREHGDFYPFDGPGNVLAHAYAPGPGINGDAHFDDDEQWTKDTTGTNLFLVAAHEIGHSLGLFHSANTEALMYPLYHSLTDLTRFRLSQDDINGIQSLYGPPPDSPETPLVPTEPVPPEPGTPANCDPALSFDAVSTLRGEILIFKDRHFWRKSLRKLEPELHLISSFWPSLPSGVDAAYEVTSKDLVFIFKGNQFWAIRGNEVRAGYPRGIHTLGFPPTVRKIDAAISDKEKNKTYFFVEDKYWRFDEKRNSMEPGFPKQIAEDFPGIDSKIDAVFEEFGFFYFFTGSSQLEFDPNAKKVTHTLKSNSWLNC

SMILES	Ki (Interstitial collagenase)	Ki (Stromelysin-1)	Ki [1]
O=C(C[C@@H](CCCc1ccc(F)cc1)C(=O)N[C@@H](CC1CCCCC1)C(=O)NCCc1ccccc1)NO	296 nM	13.5 nM	0.06 nM
COc1ccc(CCC[C@H](CC(=O)NO)C(=O)N[C@@H](CC2CCCCC2)C(=O)NCCc2ccccc2)cc1	1530 nM	4.16 nM	0.06 nM
Cc1ccc(CCC[C@H](CC(=O)NO)C(=O)N[C@@H](CC2CCCCC2)C(=O)NCCc2ccccc2)cc1	921 nM	8.24 nM	0.08 nM
CN(C)CCCCNC(=O)[C@H](CC1CCCCC1)NC(=O)[C@H](CCCc1ccc(Cl)cc1)CC(=O)NO	1050 nM	22.2 nM	0.05 nM
O=C(C[C@@H](Cc1ccccc1)C(=O)N[C@@H](CC1CCCCC1)C(=O)NCCc1ccccc1)NO	> 10000 nM	> 10000 nM	1900 nM
O=C(C[C@@H](CCCC1CCCCC1)C(=O)N[C@@H](CC1CCCCC1)C(=O)NCCc1ccccc1)NO	–	–	6.9 nM
CCc1ccc(CCC[C@H](CC(=O)NO)C(=O)N[C@@H](CC2CCCCC2)C(=O)NCCc2ccccc2)cc1	5120 nM	5.44 nM	0.1 nM
O=C(C[C@@H](CCCCc1ccccc1)C(=O)N[C@@H](CC1CCCCC1)C(=O)NCCc1ccccc1)NO	2500 nM	177 nM	0.254 nM
O=C(C[C@@H](CCCc1ccccc1)C(=O)N[C@@H](CC1CCCCC1)C(=O)NCCc1ccccc1)NO	203 nM	8.3 nM	0.062 nM
O=C(C[C@@H](CCCc1ccc(C(F)(F)F)cc1)C(=O)N[C@@H](CC1CCCCC1)C(=O)NCCc1ccccc1)NO	5000 nM	90.3 nM	0.3 nM
CC(C)C[C@H](CC(=O)NO)C(=O)N[C@@H](CC1CCCCC1)C(=O)NCCc1ccccc1	7.8 nM	25.3 nM	0.33 nM
O=C(C[C@@H](CCc1ccccc1)C(=O)N[C@@H](CC1CCCCC1)C(=O)NCCc1ccccc1)NO	618 nM	77 nM	2.24 nM
O=C(C[C@@H](CCCc1ccccc1)C(=O)N[C@@H](CC1CCCCC1)C(=O)NCCc1ccc(S(=O)(=O)O)cc1)NO	942 nM	8.15 nM	0.59 nM
CC(C)C[C@H](CC(=O)NO)C(=O)N[C@@H](CC(C)C)C(=O)N[C@@H](Cc1ccccc1)C(N)=O	303 nM	127 nM	–

Now from value to compound:

Ki (Interstitial collagenase)	Ki (Stromelysin-1)	Ki [1]	SMILES
–	7.31 nM	0.03 nM	O=C(C[C@@H](CCCc1ccc(Cl)cc1)C(=O)N[C@@H](CC1CCCCC1)C(=O)NCCc1ccccc1)NO
455 nM	6.26 nM	0.01 nM	Cc1ccc(CCC[C@H](CC(=O)NO)C(=O)N[C@@H](CC2CCCCC2)C(=O)NCCN2CCOCC2)cc1
–	–	0.01 nM	O=C(C[C@@H](CCCc1ccc(Cl)cc1)C(=O)N[C@@H](CC1CCCCC1)C(=O)NCCNS(=O)(=O)N1CCOCC1)NO
329 nM	2.98 nM	0.01 nM	Cc1ccc(CCC[C@H](CC(=O)NO)C(=O)N[C@@H](CC2CCCCC2)C(=O)NCCc2ccc(S(N)(=O)=O)cc2)cc1
382 nM	6.35 nM	0.03 nM	NS(=O)(=O)c1ccc(CCNC(=O)[C@H](CC2CCCCC2)NC(=O)[C@H](CCCc2ccc(Cl)cc2)CC(=O)NO)cc1
135 nM	0.96 nM	0.01 nM	COC(=O)CCNC(=O)[C@H](CC1CCCCC1)NC(=O)[C@H](CCCc1ccc(Cl)cc1)CC(=O)NO
319 nM	1.38 nM	0.02 nM	O=C(C[C@@H](CCCc1ccc(Cl)cc1)C(=O)N[C@@H](CC1CCCCC1)C(=O)NCCC(=O)N1CCOCC1)NO
193 nM	0.8 nM	0.01 nM	O=C(O)CCNC(=O)[C@H](CC1CCCCC1)NC(=O)[C@H](CCCc1ccc(Cl)cc1)CC(=O)NO
–	–	0.01 nM	Cc1ccc(CCC[C@H](CC(=O)NO)C(=O)N[C@@H](CC2CCCCC2)C(=O)NCCNS(=O)(=O)N2CCOCC2)cc1
313 nM	2.39 nM	0.03 nM	O=C(C[C@@H](CCCc1ccc(Cl)cc1)C(=O)N[C@@H](CC1CCCCC1)C(=O)NCCCCN1CCOCC1)NO
313 nM	5.87 nM	0.02 nM	Cc1ccc(CCC[C@H](CC(=O)NO)C(=O)N[C@@H](CC2CCCCC2)C(=O)NCCCCN(C)C)cc1
642 nM	2.61 nM	0.02 nM	Cc1ccc(CCC[C@H](CC(=O)NO)C(=O)N[C@@H](CC2CCCCC2)C(=O)NCCCCN2CCOCC2)cc1
